Values quoted from earlier work in patent US6369115B1, “Stabilized powder formulations” (Dura Pharmaceuticals, Inc., priority 2000, dated 2002).

For `CCC(=O)O[C@]1(C(=O)SCF)[C@H](C)C[C@H]2[C@@H]3C[C@H](F)C4=CC(=O)C=C[C@]4(C)[C@@]3(F)[C@@H](O)C[C@@]21C` [fluticasone propionate, (6 alpha, 11 beta, 16 alpha, 17 alpha)-6,9,-difluoro-11-hydroxy-16-methyl-3-oxo-17-(1-oxopropoxy)androsta-1,4-diene-17-carbothioic acid, S-fluoromethyl ester], the solubility in water is listed as “insoluble in water”.

In the case of `COc1ccc(CC(C)NCC(O)c2ccc(O)c(NC=O)c2)cc1` (centres unmarked) [Formoterol, N-[2-hydroxy-5-[1-hydroxy-2-[[2-(4-methoxyphenyl)-1-methylethyl]amino]ethyl]phenyl]formamide], the solubility in water is listed as “soluble in water”.
